Usually IC50 stands for the concentration needed to halve the response being measured.

The source of these data is patent US20220340983A1, “SYSTEMS AND ASSAYS FOR IDENTIFYING PU.1 INHIBITORS” (Massachustts Institute of Technology, priority 2019, published 2022).

For assay [1], the target named is T1, PU.1 (Mus musculus, UniProt P17433).
T1 construct: endogenous in cells; host or cells: BV2 PU.1-Luciferase (mouse microglial BV2 with a 5xLBB-luciferase reporter integrated at ROSA26)
As to the kind of experiment: Luciferase assay (luminescence) in BV2 PU.1-Luciferase reporter cells. It counts as cell-based. The note with it: luminescence reduction in BV2 PU.1-Luciferase cells, concentration-response, Hill's equation. The source says: PU.1 belongs to a group of transcription factors that all bind to the middle 5′-GGAA-3′ sequence. The flanking A/T rich sequence is crucial for conferring PU.1 selective binding. The flanking sequence requires unique structural properties of PU.1 and can therefore be targeted by drugs acting as allosteric inhibitors that prevent PU.1 from binding to the LBB. In order to achieve robust PU.1 binding, five tandem copies of the LBBs (5×LBB) were inserted into the luciferase promoter of the pGL4.23 plasmid. The region containing the five LBBs (5×LBB) was then subcloned into the pROSA26-1 plasmid (together with a PGKneo bpA plasmid for Neomycin/G418 resistance) that allows stable integration in chromosome 6 of the immortalized mouse microglial BV2 cell line (FIG. 2B). The stable cell line was created by selection with G418.
The BV2 PU.1-Luciferase cells (referred to as “cells” from here onward) were plated into a 384-well plate, using an automatic dispenser, 2000 cells per well in 30 μL of media composed of RPMI (Sigma-Aldrich), 10% FBS, 1% PenStrep (50 mg/mL) and 1% G418 (50 mg/mL) was plated. A robotic arm was used to transfer compounds in a 384-well format using a pin array into the plate containing the cells (here, 33 nL was transferred from a drug library containing 10 mM concentration of drugs for a final concentration of 10 μM per well). For reproducibility, each pin array with 384 compounds was added to 4 plates of cells. […] Subsequently, automatic of 30 μL of BrightGlo (Promega) was dispensed into 2 of the 4 plates, in order to lyse the cells and drive the luminescence reaction whereafter the luminescence intensity was measured by a plate reader (Perkin Elmer EnVision). The two other plates were fixed by automatically dispensing 30 μL of 10% formaldehyde with 2μL Hoechst per 1 mL formaldehyde which were left at room temperature for one hour, followed by plate reading (Acumen (TTPLabTech)). A compound transfer and treatment would be repeated if reproducibility between the luminescence plates and/or the fixed Hoechst plates was lacking. The drugs were selected and ranked according to the criteria described in FIG. 13. Luminescence values used were corrected for crosstalk. Hoechst values were total fluorescence area per well. Determination of a positive hit considered both the reduction of luminescence as well as a possible confounding reduction in cell viability. The formula used was y=(value−meanvalue)/stddev. […] Compounds were excluded if cell viability was reduced >2 standard deviations from the mean, using the same formula. The positive hits were then validated in multiple steps in order to identify true PU.1 inhibitors.
The degree of luminescence reduction of the hits was plotted with significant effective area under the curve in order to obtain an IC50.

The subject of assay [2] is PU.1 dependent gene expression. As to the kind of experiment: RT-qPCR of mRNA levels in BV2 PU.1-Luciferase cells (validation round 3). The note with it: 2-day treatment. In kind it is cell-based, mouse. Here is the method: The Asinex1 and ChemDiv6 libraries contain molecules with unknown biological properties, but with low toxicity, high stability, and a broad structural diversity used to generate structure-activity-relationships (SAR) of the PU.1 inhibitors. […] In order to obtain the SAR, three rounds of validation were performed. In round 1, false-positive, non-specific luciferase quencher molecules were excluded using the commercially available HEK293 CMV-Luciferase line that constitutively expresses luciferase under the CMV promoter. In round 2, weak (non-significant) hits were eliminated according to degree of PU.1 inhibition in the absence of cell death. In round 3, drugs were selected that reduce PU.1-dependent gene expression with RT-qPCR.

Turning to `CCCC(=O)Nc1nnc(SCc2cc(=O)c3ccc(C)cc3[nH]2)s1` [Compound 2E6], the IC50 in assay [1] was 1620 nM. In addition, in assay [2], the “mRNA levels Apoe” value is 1.170 multiples of 1×, the “mRNA levels IL1β” value was 0.810 multiples of 1×, the “mRNA levels Lucif.” value was 0.379 multiples of 1× and the “mRNA levels Spi1” value is on record as 1.046 multiples of 1×. Moreover, in assay [2], the “mRNA levels Trem2” value is on record as 1.262 multiples of 1× and the “mRNA levels Tyrobp” value is given as 1.347 multiples of 1×.

In assay [1], `CCc1ccc(NC(=O)Cn2c(=O)oc3cc(S(=O)(=O)N4CCCCCC4)ccc32)cc1` [Compound 2A7] yielded a half-inhibitory concentration (IC50) of 3620 nM. Moreover, in assay [2], the “mRNA levels Apoe” value is recorded as 0.886 multiples of 1×, the “mRNA levels IL1β” value is given as 0.435 multiples of 1×, the “mRNA levels Lucif.” value is 0.328 multiples of 1× and the “mRNA levels Spi1” value is given as 0.739 multiples of 1×. In assay [2], the “mRNA levels Trem2” value is reported as 0.942 multiples of 1× and the “mRNA levels Tyrobp” value was 0.928 multiples of 1×.

In assay [1], `CCc1ccc(CNC(=O)C2CCCN(c3nn4cc(-c5ccc(F)cc5)nc4s3)C2)cc1` (centres unmarked) [Compound 2C2] yielded an IC50 of 876 nM. Also, in assay [2], the “mRNA levels Apoe” value is 1.035 multiples of 1×, the “mRNA levels IL1β” value is 0.954 multiples of 1×, the “mRNA levels Lucif.” value is reported as 0.504 multiples of 1× and the “mRNA levels Spi1” value is recorded as 1.034 multiples of 1×. In assay [2], the “mRNA levels Trem2” value is reported as 1.031 multiples of 1× and the “mRNA levels Tyrobp” value is given as 1.130 multiples of 1×.

`Cn1nccc1C(=O)NCc1ccc2c(c1)CCN2C(=O)c1ccc(F)cc1` [Compound 2G2] returned an IC50 in assay [1] of 4800 nM. For the same compound, in assay [2], the “mRNA levels Apoe” value is 0.957 multiples of 1×, the “mRNA levels IL1β” value is reported as 0.887 multiples of 1×, the “mRNA levels Lucif.” value is reported as 0.294 multiples of 1× and the “mRNA levels Spi1” value is given as 0.958 multiples of 1×. In assay [2], the “mRNA levels Trem2” value is given as 1.071 multiples of 1× and the “mRNA levels Tyrobp” value is recorded as 0.963 multiples of 1×.

Turning to `CCOc1ccc(-c2nc(CSCC(=O)NCc3ccc(C)cc3)c(C)o2)cc1` [Compound 2H2], the midpoint of inhibition in assay [1], the IC50, lay at 380 nM. For the same compound, in assay [2], the “mRNA levels Apoe” value was 1.739 multiples of 1×, the “mRNA levels IL1β” value is recorded as 0.706 multiples of 1×, the “mRNA levels Lucif.” value is 0.299 multiples of 1× and the “mRNA levels Spi1” value is 1.251 multiples of 1×. Besides, in assay [2], the “mRNA levels Trem2” value is 1.668 multiples of 1× and the “mRNA levels Tyrobp” value is 1.952 multiples of 1×.

For `N#CC(=CNc1ccc2c(c1)OCCO2)c1nc2ccccc2[nH]1` [Compound A09], half-maximal inhibition in assay [1] (IC50) required 1480 nM. In addition, in assay [2], the “mRNA levels Apoe” value is recorded as 0.941 multiples of 1×, the “mRNA levels IL1β” value is reported as 0.644 multiples of 1×, the “mRNA levels Lucif.” value is listed as 0.513 multiples of 1× and the “mRNA levels Spi1” value was 0.931 multiples of 1×. In addition, in assay [2], the “mRNA levels Trem2” value is listed as 0.879 multiples of 1× and the “mRNA levels Tyrobp” value was 0.821 multiples of 1×.

Turning to `Cc1ccc(-c2c(C)n3c4c(=O)n(C)c(=O)n(C)c4nc3n2CCO)cc1` [Compound 2H5], half-maximal inhibition in assay [1] (IC50) required 155 nM. Further, in assay [2], the “mRNA levels Apoe” value is reported as 1.756 multiples of 1×, the “mRNA levels IL1β” value is listed as 0.185 multiples of 1×, the “mRNA levels Lucif.” value was 0.165 multiples of 1× and the “mRNA levels Spi1” value was 1.316 multiples of 1×. Further, in assay [2], the “mRNA levels Trem2” value is listed as 2.628 multiples of 1× and the “mRNA levels Tyrobp” value was 2.422 multiples of 1×.

`COc1ccc(NS(=O)(=O)c2ccc3c(c2)CCCN3C(=O)C2CCC2)cc1OC` [Compound 2F7] displayed an IC50 in assay [1] of 1420 nM. In assay [2], the “mRNA levels Apoe” value was 1.146 multiples of 1×, the “mRNA levels IL1β” value was 0.460 multiples of 1×, the “mRNA levels Lucif.” value is listed as 0.216 multiples of 1× and the “mRNA levels Spi1” value is listed as 0.936 multiples of 1×. Besides, in assay [2], the “mRNA levels Trem2” value is 1.442 multiples of 1× and the “mRNA levels Tyrobp” value was 1.498 multiples of 1×.

In turn, `Cc1ccc(C)c(N2CCN(C(=O)C3CCN(c4nc(-c5ccc(C(C)C)cc5)no4)CC3)CC2)c1` [Compound 2E10] registered an IC50 in assay [1] of 1340 nM. Besides, in assay [2], the “mRNA levels Apoe” value is given as 1.244 multiples of 1×, the “mRNA levels IL1β” value is on record as 1.082 multiples of 1×, the “mRNA levels Lucif.” value is 0.611 multiples of 1× and the “mRNA levels Spi1” value was 1.133 multiples of 1×. Moreover, in assay [2], the “mRNA levels Trem2” value is on record as 1.253 multiples of 1× and the “mRNA levels Tyrobp” value is on record as 1.158 multiples of 1×.

In assay [1], `Cc1ccccc1NC(=O)C(C)Sc1nc2ccccc2c(=O)n1C` (centres unmarked) [Compound D04] gave an IC50 of 477 nM. Further, in assay [2], the “mRNA levels Apoe” value is 0.841 multiples of 1×, the “mRNA levels IL1β” value is listed as 0.866 multiples of 1×, the “mRNA levels Lucif.” value is 0.519 multiples of 1× and the “mRNA levels Spi1” value is recorded as 0.865 multiples of 1×. Also, in assay [2], the “mRNA levels Trem2” value was 0.976 multiples of 1× and the “mRNA levels Tyrobp” value is recorded as 1.071 multiples of 1×.

In assay [1], `COc1cccc2cc(C(=O)Nc3ccc(N4CCNCC4)cc3)c(=O)oc12` [Compound D10] had an IC50 of 258 nM. For the same compound, in assay [2], the “mRNA levels Apoe” value was 1.251 multiples of 1×, the “mRNA levels IL1β” value is listed as 1.347 multiples of 1×, the “mRNA levels Lucif.” value is on record as 0.622 multiples of 1× and the “mRNA levels Spi1” value was 1.072 multiples of 1×. In assay [2], the “mRNA levels Trem2” value is recorded as 1.342 multiples of 1× and the “mRNA levels Tyrobp” value is listed as 1.593 multiples of 1×.

In assay [1], `Cc1cccc(Cn2cccc(C(=O)Nc3nc4ccccc4s3)c2=O)c1` [Compound 2F11] came in with an IC50 of 303 nM. Moreover, in assay [2], the “mRNA levels Apoe” value is listed as 1.005 multiples of 1×, the “mRNA levels IL1β” value was 1.086 multiples of 1×, the “mRNA levels Lucif.” value is 0.640 multiples of 1× and the “mRNA levels Spi1” value is 0.943 multiples of 1×. In assay [2], the “mRNA levels Trem2” value is 1.012 multiples of 1× and the “mRNA levels Tyrobp” value is 1.002 multiples of 1×.

Turning to `C[C@@H]1C[C@H]2[C@@H]3CCC4=CC(=O)C=C[C@]4(C)[C@@]3(F)[C@@H](O)C[C@]2(C)[C@@]1(O)C(=O)CO` [Dexamethasone, reference compound], in assay [2], the “mRNA levels Apoe” value was 1.325 multiples of 1×, the “mRNA levels IL1β” value is 1.041 multiples of 1×, the “mRNA levels Lucif.” value is listed as 0.373 multiples of 1× and the “mRNA levels Spi1” value is on record as 0.955 multiples of 1×. Moreover, in assay [2], the “mRNA levels Trem2” value is on record as 0.751 multiples of 1× and the “mRNA levels Tyrobp” value is on record as 1.010 multiples of 1×.

As for `C[C@H]1C[C@H]2[C@@H]3CCC4=CC(=O)C=C[C@]4(C)[C@@]3(F)[C@@H](O)C[C@]2(C)[C@@]1(O)C(=O)CO` [Betamethasone, reference compound], in assay [2], the “mRNA levels Apoe” value was 1.615 multiples of 1×, the “mRNA levels IL1β” value is on record as 0.379 multiples of 1×, the “mRNA levels Spi1” value is reported as 1.235 multiples of 1× and the “mRNA levels Trem2” value is listed as 1.137 multiples of 1×. Moreover, the “mRNA levels Tyrobp” value in assay [2] is recorded as 1.079 multiples of 1×.

On to `C[C@]12CCC(=O)C=C1CC[C@H]1[C@@H]3CC[C@](O)(C(=O)CO)[C@@]3(C)C[C@H](O)[C@@]12F` [Fludrocortisone, reference compound], for which, in assay [2], the “mRNA levels Apoe” value is 1.493 multiples of 1×, the “mRNA levels IL1β” value is reported as 1.764 multiples of 1×, the “mRNA levels Lucif.” value was 1.171 multiples of 1× and the “mRNA levels Spi1” value was 0.900 multiples of 1×. Moreover, in assay [2], the “mRNA levels Trem2” value is on record as 0.895 multiples of 1× and the “mRNA levels Tyrobp” value is 1.082 multiples of 1×.
